Reference: US8933099B2, “Monocyclic pyridine derivative” (Eisai R&D Management Co., Ltd., priority 2013, dated 2015)

Legend:
[1] = system: normal human umbilical vein endothelial cells (HUVEC); assay: HUVEC growth inhibition assay (VEGF-induced); format: cell-based; settings: Homo sapiens, HUVEC, 72 h; growth in the presence of VEGF 10 ng/mL, 3 days; read-out: HUVEC (IC50 (nM))
Procedure: The absorbance value was measured with ENVISION™ (PerkinElmer Co., Ltd.) at 450 nm. The absorbance values of the wells without adding the test substance but with VEGF addition was defined as 100% and the absorbance values of the wells with neither the test substance nor VEGF addition was defined as 0%.

[2] = system: human stomach cancer cell line SNU-16 (FGFR2 gene amplification); assay: SNU-16 growth inhibition assay; format: cell-based; settings: Homo sapiens, SNU-16, 72 h; cell growth, 3 days, Cell Counting Kit-8; read-out: SNU-16 (IC50 (nM))
Procedure: In this assay, the growth inhibitory activity of a test substance in a human stomach cancer cell line harboring FGFR2 gene amplification is measured.
Then, 10 μL of Cell Counting Kit-8 (Dojindo Laboratories, CK04) was added to each well, and the resultant was incubated for 1 to 2 hours in a 5% CO2 incubator (37° C.) to cause a color reaction. The absorbance value was measured with ENVISION™ (PerkinElmer Co., Ltd.) at 450 nm.

FGFR1 protein = FGFR1 protein (Homo sapiens (Human), UniProt P11362); assay: biochemical
[3] = system: human lung cancer cell line NCI-H1581 xenograft; assay: Antitumor effect in NCI-H1581 subcutaneous xenograft model in mice; format: in vivo; settings: oral, once a day for 11 days, tumor volume last day
Procedure: Human lung cancer cell line NCI-H1581, which had been cultured in RPMI-1640 medium containing 10% FBS, and penicillin and streptomycin, were adjusted to a concentration of 1×10^8 cells/mL with Hanks' Balanced Salt Solution(GIBCO #24020) to prepare a cell suspension, and the suspension was mixed with […] in a ratio of 1:1 to prepare a cell suspension in a concentration of 5×10^7 cells/mL. The cell suspension was inoculated in a volume of 100 μL into a subcutaneous part of a right flank of each of nude mice, 6 to 7 weeks of ages (BALB/cAJcl-nu/nu, female, Clea Japan Inc.). Ten to 11 days after the cell inoculation, the shortest diameter and the longest diameter of a tumor in each mouse were measured by using an electronic digital caliper (Digimatic™ caliper, Mitutoyo Corporation), so as to calculate the volume of the tumor in accordance with the following calculation formula: Tumor volume(mm^3)=Longest diameter(mm)×Shortest diameter(mm)×Shortest diameter(mm)/2
(§1) On the basis of the volumes of tumors obtained on the first day of administration, the nude mice were grouped such that averages of the tumor volumes were substantially equal among the groups. Each test substance was dissolved in DMSO, Tween 80 was added thereto to prepare a solution in a 10-fold concentration and the thus prepared solution was stored at the freezer before use. Immediately before the administration, the stock solution was diluted with a 5% glucose solution to obtain a final administration solution (in which a ratio in % among DMSO, Tween 80 and the 5% glucose solution was 3.5:6.5:90). Each evaluation sample was orally administered to test substance administration group at a volume of 0.4 mL per 20 g of body weight once a day continuously for 11 days, and in a control group, an administration solvent was orally administered under the same conditions. Incidentally, the experiment was conducted on groups each consisting of 5 mice.
(§2) With respect to each of the control group and test substance administration group, a ratio of the weight measured on the final day to the weight measured on the first day (relative body weight: RBW) was calculated. If a ratio of the RBW of the test substance administration group/the RBW of the control group is 0.9 or more, the corresponding test substance administration group was defined as a well-tolerated. In the test substance administration group thus defined as well-tolerated, a ratio of the tumor volume of the test substance-dosing group to the tumor volume of the control group obtained on the last day (TIC) (%) was calculated, and shown in Table 22.

[4] = system: human stomach cancer cell line SNU-16 xenograft; assay: Antitumor effect in SNU-16 subcutaneous xenograft model in mice; format: in vivo; settings: oral, once a day for 11 days, tumor volume last day
Source text: Human stomach cancer cell line SNU-16, which had been cultured in an RPMI-1640 medium containing 10% FBS, and penicillin and streptomycin, were adjusted to a concentration of 1×10^8 cells/mL with Hanks' Balanced Salt Solution (GIBCO #24020) to prepare a cell suspension, and the suspension was mixed with […] (BD Biosciences, Cat#354234) in a ratio of 1:1 to prepare a cell suspension in a concentration of 5×10^7 cells/ml. The cell suspension was inoculated in a volume of 100 ut into a subcutaneous part of a right flank of nude mice, 6 to 7 weeks of ages (BALB/cAiel-nu/nu, female, Clea Japan Inc.). Seven days after cell inoculation, the shortest diameter and the longest diameter of a tumor in each mouse were measured by using an electronic digital caliper (Digimatie™ caliper, Mitutoyo Corporation), so as to calculate the volume of the tumor in accordance with the following calculation formula: Tumor volume(mm^3)Longest diameter(mm)×Shortest diameter(mm)×Shortest diameter(mm)/2
as §1
as §2, with “mom,” for “more,”, “21.” for “22.”

Chain of FGFR1 protein (P11362 22-822): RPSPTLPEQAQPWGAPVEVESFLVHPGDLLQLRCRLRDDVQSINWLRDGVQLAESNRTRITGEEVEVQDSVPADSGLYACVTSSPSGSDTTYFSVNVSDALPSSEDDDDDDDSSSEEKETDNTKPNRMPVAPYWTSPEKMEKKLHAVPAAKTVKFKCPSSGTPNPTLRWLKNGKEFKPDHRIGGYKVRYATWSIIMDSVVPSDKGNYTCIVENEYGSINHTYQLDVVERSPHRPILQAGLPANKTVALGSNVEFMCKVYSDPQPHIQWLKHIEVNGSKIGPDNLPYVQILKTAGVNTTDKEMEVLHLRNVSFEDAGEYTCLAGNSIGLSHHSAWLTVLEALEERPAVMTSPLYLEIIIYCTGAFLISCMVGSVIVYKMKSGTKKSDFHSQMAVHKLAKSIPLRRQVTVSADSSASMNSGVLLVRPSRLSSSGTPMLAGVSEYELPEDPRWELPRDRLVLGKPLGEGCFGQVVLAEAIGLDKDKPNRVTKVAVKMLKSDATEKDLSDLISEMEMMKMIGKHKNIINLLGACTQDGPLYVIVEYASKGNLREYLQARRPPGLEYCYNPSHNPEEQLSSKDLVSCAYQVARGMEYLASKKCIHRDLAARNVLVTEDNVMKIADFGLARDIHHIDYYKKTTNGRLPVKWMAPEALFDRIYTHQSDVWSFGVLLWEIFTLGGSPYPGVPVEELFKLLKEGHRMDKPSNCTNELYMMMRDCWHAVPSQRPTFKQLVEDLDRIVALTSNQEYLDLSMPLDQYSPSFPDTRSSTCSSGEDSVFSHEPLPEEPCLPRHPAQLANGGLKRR

Compound	IC50 [1] [nM]	IC50 [2] [nM]	IC50 (FGFR1 protein) [nM]	T/C (%) ([3]; 6.25 mg/kg)	T/C (%) ([3]; 12.5 mg/kg)	T/C (%) ([3]; 25 mg/kg)	T/C (%) ([4]; 6.25 mg/kg)	T/C (%) ([4]; 12.5 mg/kg)	T/C (%) ([4]; 25 mg/kg)	T/C (%) ([3]; 50 mg/kg)	T/C (%) ([4]; 50 mg/kg)
CNC(=O)n1ccc2cc(Oc3ccnc(NC(=O)c4ccc(C5CCNCC5)cc4)c3)c(OC)cc21 [Example 1, 6-Methoxy-N-methyl-5-((2-(4-(piperidin-4-yl)benzamide)pyridin-4-yl)oxy)-1H-indole-1-carboxamide]	98.7	7.5	9.8	–	–	–	–	–	–	–	–
CCN1CCC(c2ccc(C(=O)Nc3cc(Oc4cc5ccn(C(=O)NC)c5cc4OC)ccn3)cc2)CC1 [Example 2, 5-((2-(4-(1-Ethylpiperidin-4-yl)benzamide)pyridin-4-yl)oxy)-6-methoxy-N-methyl-1H-indole-1-carboxamide]	–	–	–	36	19	11	51	28	18	–	–
CCOc1cc2c(ccn2C(=O)NC)cc1Oc1ccnc(NC(=O)c2ccc(C3CCN(CC)CC3)cc2)c1 [Example 16, 6-Ethoxy-5-((2-(4-(1-ethylpiperidin-4-yl)benzamide)pyridin-4-yl)oxy)-N-methyl-1H-indole-1-carboxamide]	–	–	–	50	25	15	39	21	15	–	–
CNC(=O)n1ccc2cc(Oc3ccnc(NC(=O)c4ccc(C5CCN(C)CC5)cc4)c3)c(OCCOC)cc21 [Example 21, 6-(2-Methoxyethoxy)-N-methyl-5-((2-(4-(1-methylpiperidin-4-yl)benzamide)pyridin-4-yl)oxy)-1H-indole-1-carboxamide]	–	–	–	36	18	10	49	26	16	6	7
